Measurements from PubChem BioAssay AID330 (DTP/NCI, 2004).
Where “and” joins values, the source holds several entries; their conditions need not be identical. Identical values can stand only once. Inconclusive results and toxic doses are left out. Rule for the calls: active = survival T/C of 150% or more; inactive = T/C below 125% in these data.

Tested on: P388 leukemia ip, CD2F1 mice, survival T/C
Experiment: NCI In Vivo Anticancer Drug Screen. Data for tumor model P388 Leukemia (intraperitoneal) in CD2F1 (CDF1) mice
Settings: endpoint: median survival time, higher = longer survival
In short: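 Mice carrying the transplanted tumor received test compound or vehicle. Survival was recorded in each group, and the value is the treated-group measurement divided by that of the vehicle-treated control group.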

[1] = dose: 50.0 mg/kg/injection, schedule: Q01DX005 (ip), vehicle: Klucel (hydroxypropylcellulose) (HPC)
[2] = dose: 50.0 mg/kg/injection, schedule: Q01DX009 (ip), vehicle: saline with Tween-80
[3] = dose: 100.0 mg/kg/injection, schedule: Q01DX009 (ip), vehicle: saline with Tween-80
[4] = dose: 200.0 mg/kg/injection, schedule: Q01DX009 (ip), vehicle: saline with Tween-80
[5] = dose: 100.0 mg/kg/injection, schedule: Q04DX003 (ip), vehicle: Klucel (hydroxypropylcellulose) (HPC)
[6] = dose: 200.0 mg/kg/injection, schedule: Q04DX003 (ip), vehicle: Klucel (hydroxypropylcellulose) (HPC)
[7] = dose: 400.0 mg/kg/injection, schedule: Q04DX003 (ip), vehicle: Klucel (hydroxypropylcellulose) (HPC)
[8] = dose: 50.0 mg/kg/injection, schedule: Q04DX003 (ip), vehicle: saline
[9] = dose: 100.0 mg/kg/injection, schedule: Q04DX003 (ip), vehicle: saline
[10] = dose: 200.0 mg/kg/injection, schedule: Q04DX003 (ip), vehicle: saline
[11] = dose: 50.0 mg/kg/injection, schedule: Q01DX005 (ip), vehicle: saline
[12] = dose: 100.0 mg/kg/injection, schedule: Q01DX005 (ip), vehicle: saline
[13] = dose: 200.0 mg/kg/injection, schedule: Q01DX005 (ip), vehicle: saline
[14] = dose: 100.0 mg/kg/injection, schedule: Q01DX005 (ip), vehicle: Klucel (hydroxypropylcellulose) (HPC)
[15] = dose: 200.0 mg/kg/injection, schedule: Q01DX005 (ip), vehicle: Klucel (hydroxypropylcellulose) (HPC)
[16] = dose: 50.0 mg/kg/injection, schedule: Q01DX009 (ip), vehicle: Klucel (hydroxypropylcellulose) (HPC)
[17] = dose: 100.0 mg/kg/injection, schedule: Q01DX009 (ip), vehicle: Klucel (hydroxypropylcellulose) (HPC)
[18] = dose: 200.0 mg/kg/injection, schedule: Q01DX009 (ip), vehicle: Klucel (hydroxypropylcellulose) (HPC)

Measured: T/C

CNc1[nH]c(=O)[nH]c(=O)c1[N+](=O)[O-]
inactive: dose: 12.5 mg/kg/injection, schedule: Q01DX005 (ip), vehicle: Klucel (hydroxypropylcellulose) (HPC) 100 % of control | dose: 25.0 mg/kg/injection, schedule: Q01DX005 (ip), vehicle: Klucel (hydroxypropylcellulose) (HPC) 105 % of control | [1] 105 % of control and 112 % of control

CCOC(=O)COc1ccc(/C=C(\C)[N+](=O)[O-])c2ccccc12
inactive: [2] 99 % of control | [3] 91 % of control | [4] 100 % of control

O=C(c1ccccc1)C(c1ccccc1)n1ncc2c1CCOC2 (stereo unspecified)
inactive: [5] 105 % of control | [6] 96 % of control | [7] 108 % of control

Cc1cc(C)c(CCl)cc1CCl
inactive: dose: 20.0 mg/kg/injection, schedule: Q04DX003 (ip), vehicle: saline with Tween-80 113 % of control | dose: 40.0 mg/kg/injection, schedule: Q04DX003 (ip), vehicle: saline with Tween-80 118 % of control | dose: 80.0 mg/kg/injection, schedule: Q04DX003 (ip), vehicle: saline with Tween-80 90 % of control

Cc1ccc(N=c2scc(-c3ccccc3)n2-c2ccccc2)cc1
inactive: dose: 100.0 mg/kg/injection, schedule: Q04DX002 (ip), vehicle: saline with Tween-80 102 % of control | dose: 200.0 mg/kg/injection, schedule: Q04DX002 (ip), vehicle: saline with Tween-80 93 % of control | dose: 400.0 mg/kg/injection, schedule: Q04DX002 (ip), vehicle: saline with Tween-80 95 % of control

CC1[C@@H]2[C@@H](C=C3C4CCC5Cc6nc7c(nc6C[C@@]5(C)C4C[C@H](O)[C@]32CO)CC2CCC3C4=C[C@H]5O[C@@]6(O[C@@](C)(CO)C[C@@H]6O)C(C)[C@@]5(O)[C@]4(C)[C@@H](O)CC3[C@]2(C)C7)O[C@]12CCC(C)(C)O2 (stereo partly specified)
inactive: dose: 12.5 micrograms/kg/injection, schedule: Q01DX009 (ip), vehicle: saline + alcohol 107 % of control | dose: 25.0 micrograms/kg/injection, schedule: Q01DX009 (ip), vehicle: saline + alcohol 116 % of control | dose: 50.0 micrograms/kg/injection, schedule: Q01DX009 (ip), vehicle: saline + alcohol 107 % of control | dose: 100.0 micrograms/kg/injection, schedule: Q01DX009 (ip), vehicle: saline + alcohol 100 % of control

OCCC1CC2CCCCN2O1 (stereo unspecified)
inactive: [8] 101 % of control | [9] 103 % of control | [10] 102 % of control

C/C=C/C=C1\C=Cc2c(C(=O)OC)coc(=O)c21
inactive: dose: 19.5 mg/kg/injection, schedule: Q01DX005 (ip), vehicle: Klucel (hydroxypropylcellulose) (HPC) 107 % of control | dose: 39.0 mg/kg/injection, schedule: Q01DX005 (ip), vehicle: Klucel (hydroxypropylcellulose) (HPC) 110 % of control | dose: 78.0 mg/kg/injection, schedule: Q01DX005 (ip), vehicle: Klucel (hydroxypropylcellulose) (HPC) 108 % of control

CCOc1ccc(N2C(=O)CC(Sc3ccccc3N)C2=O)cc1 (stereo unspecified)
inactive: [3] 110 % of control | [4] 115 % of control | dose: 400.0 mg/kg/injection, schedule: Q01DX009 (ip), vehicle: saline with Tween-80 120 % of control

COC(=O)C1=CN(c2ccccc2)C(=O)C1
inactive: [5] 118 % of control | [6] 114 % of control | [7] 108 % of control

C=C(CC1(O)C(C2COC(C)(C)O2)OC2OC(C)(C)OC21)C(=O)OCC (stereo unspecified)
inactive: [11] 96 % of control | [12] 98 % of control | [13] 105 % of control

c1ccc(C2=NNC(c3ccccn3)=C3CCCCCCC3=N2)nc1
inactive: dose: 5.3 mg/kg/injection, schedule: Q01DX009 (ip), vehicle: water 110 % of control | dose: 8.0 mg/kg/injection, schedule: Q01DX009 (ip), vehicle: water 112 % of control | dose: 12.0 mg/kg/injection, schedule: Q01DX009 (ip), vehicle: water 112 % of control | dose: 18.0 mg/kg/injection, schedule: Q01DX009 (ip), vehicle: water 110 % of control | dose: 25.0 mg/kg/injection, schedule: Q01DX009 (ip), vehicle: water 111 % of control | dose: 50.0 mg/kg/injection, schedule: Q01DX009 (ip), vehicle: water 117 % of control

COC(=O)/C=C/c1ccc[n+]([O-])c1
inactive: [11] 99 % of control | [12] 98 % of control | [13] 99 % of control

C=CS(=O)(=O)c1cccc(N2C(=O)c3cc(S(=O)(=O)O)cc4c(N)c(S(=O)(=O)O)cc(c34)C2=O)c1
inactive: [11] 107 % of control | [12] 107 % of control | [13] 100 % of control

CC1CCCCN1C=C1C(=O)OC(C)(C)OC1=O (stereo unspecified)
inactive: dose: 60.0 mg/kg/injection, schedule: Q01DX005 (ip), vehicle: Klucel (hydroxypropylcellulose) (HPC) 95 % of control | dose: 120.0 mg/kg/injection, schedule: Q01DX005 (ip), vehicle: Klucel (hydroxypropylcellulose) (HPC) 96 % of control

CCOC(=O)COc1cc2c(cc1C(C)c1ccc(OC)cc1)OCO2 (stereo unspecified)
inactive: [1] 104 % of control | [14] 100 % of control | [15] 94 % of control

CCCCN(CCCC)C(C)C(=O)c1ccc2cc(Br)c3ccccc3c2c1 (stereo unspecified)
inactive: dose: 12.5 mg/kg/injection, schedule: Q01DX005 (ip), vehicle: saline with Tween-80 110 % of control | dose: 25.0 mg/kg/injection, schedule: Q01DX005 (ip), vehicle: saline with Tween-80 101 % of control | dose: 50.0 mg/kg/injection, schedule: Q01DX005 (ip), vehicle: saline with Tween-80 99 % of control and 100 % of control | dose: 100.0 mg/kg/injection, schedule: Q01DX005 (ip), vehicle: saline with Tween-80 107 % of control | dose: 200.0 mg/kg/injection, schedule: Q01DX005 (ip), vehicle: saline with Tween-80 119 % of control

CCC[CH2][Sn]([CH2]CCN(C)C)([CH2]CCN(C)C)[CH2]CCN(C)C
inactive: [2] 100 % of control | [3] 107 % of control

OC12CCCCC1CCCS2 (stereo unspecified)
inactive: [9] 98 % of control | [10] 94 % of control | dose: 400.0 mg/kg/injection, schedule: Q04DX003 (ip), vehicle: saline 102 % of control

CCOC(=O)N1C(=O)C2C3CCC(C2C1=O)C1C2C(=O)N(C(=O)OCC)C(=O)C2C31 (stereo unspecified)
inactive: dose: 12.5 mg/kg/injection, schedule: Q01DX009 (ip), vehicle: saline with Tween-80 103 % of control | dose: 25.0 mg/kg/injection, schedule: Q01DX009 (ip), vehicle: saline with Tween-80 104 % of control and 111 % of control | [2] 115 % of control
active: [3] 157 % of control | [4] 222 % of control

O=C(CCl)NCc1ccccc1
inactive: [9] 98 % of control | [10] 100 % of control

OCC1OC(OC2C(CO)OC(Sc3ccccc3)C(O)C2O)C(O)C(O)C1O (stereo unspecified)
inactive: [1] 101 % of control | [14] 105 % of control | [15] 105 % of control

CC(C)c1nccn1Cc1c(Cl)cccc1Cl
inactive: [16] 102 % of control | [17] 95 % of control | [18] 96 % of control

COC1OC2COC(c3ccccc3)OC2C(O)[CH]1[Hg][O]C(C)=O (stereo unspecified)
inactive: dose: 0.1 mg/kg/injection, schedule: Q01DX009 (ip), vehicle: distilled water + Tween-80 100 % of control | dose: 0.19 mg/kg/injection, schedule: Q01DX009 (ip), vehicle: distilled water + Tween-80 96 % of control | dose: 0.38 mg/kg/injection, schedule: Q01DX009 (ip), vehicle: distilled water + Tween-80 107 % of control | dose: 0.78 mg/kg/injection, schedule: Q01DX009 (ip), vehicle: distilled water + Tween-80 99 % of control | dose: 1.56 mg/kg/injection, schedule: Q01DX009 (ip), vehicle: distilled water + Tween-80 91 % of control | dose: 3.13 mg/kg/injection, schedule: Q01DX009 (ip), vehicle: distilled water + Tween-80 104 % of control | dose: 6.25 mg/kg/injection, schedule: Q01DX009 (ip), vehicle: distilled water + Tween-80 96 % of control | dose: 12.5 mg/kg/injection, schedule: Q01DX009 (ip), vehicle: distilled water + Tween-80 110 % of control

CCC(C)C(NC(=O)C(Cl)Cl)C(=O)O (stereo unspecified)
inactive: [1] 96 % of control | [14] 96 % of control | [15] 99 % of control

N#Cc1ccccc1NN=Nc1ccccc1-c1nc(N)nc(N)n1
active: [8] 181 % of control
inactive: dose: 12.0 mg/kg/injection, schedule: Q04DX003 (ip), vehicle: saline 113 % of control | dose: 25.0 mg/kg/injection, schedule: Q04DX003 (ip), vehicle: saline 113 % of control

Cc1cccc(NC(=O)Nc2ccccc2Cl)n1
inactive: [16] 102 % of control | [17] 96 % of control | [18] 93 % of control
